Literature values as cited in US6921754B2, “Compositions containing folic acid and reduced folate” (BASF Aktiengesellschaft, priority 2000, dated 2005).

System: neural tube defects (NTDs) in neonates
Conditions: supplementation of pregnant women with 0.4 to 4 mg of folic acid/day (Hages et al., 1996)

Nc1nc2ncc(CNc3ccc(C(=O)N[C@@H](CCC(=O)O)C(=O)O)cc3)nc2c(=O)[nH]1 [folic acid, N-[4-(2-Amino-3,4-dihydro-4-oxo-6-pteridinylmethylamino)-benzoyl]-L-glutamic acid]
decrease in the frequency of abnormalities in newborn infants: 50-80%
